“Also recorded” adds a separate entry of the source.
Key:
[1] = molecular target: T1, AdoMet-DC from MRC5 Cells (Homo sapiens, UniProt P17707); assay: Effect of compounds on AdoMet-DC from MRC5 cells (crude enzyme preparation); assay type: biochemical; details: AdoMet 30 μM, read-out: ID50 (the source's name)
T1 construct: Effect of Compounds on AdoMet-DC from MRC5 Cells; endogenous in cells; host or cells: MRC5 cells (crude enzyme preparation)
T1 sequence (P17707 68-334 limits assumed): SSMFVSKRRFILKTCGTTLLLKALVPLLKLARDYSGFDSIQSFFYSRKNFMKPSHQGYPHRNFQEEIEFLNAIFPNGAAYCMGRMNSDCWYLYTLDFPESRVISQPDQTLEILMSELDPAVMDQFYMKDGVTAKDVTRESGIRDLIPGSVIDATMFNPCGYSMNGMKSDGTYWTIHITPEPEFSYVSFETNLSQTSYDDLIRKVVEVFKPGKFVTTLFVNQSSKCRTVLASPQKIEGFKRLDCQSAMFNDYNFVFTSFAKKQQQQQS
T1 sequence (P17707 1-67 limits assumed): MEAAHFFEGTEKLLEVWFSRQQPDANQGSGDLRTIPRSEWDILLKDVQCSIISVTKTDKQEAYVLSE
Description: Effect of Compounds on AdoMet-DC from MRC5 Cells
mixture contained AdoMet at a concentration of 30 μM. Each inhibitor
was tested at a series of concentrations.

L1210 Cells [2] = assay: Polyamine levels in L1210 cells treated with 25; assay type: cell-based; details: for Polyamine Content, Putrescine / Polyamine Content, Spermidine / Polyamine Content, Spermine: +100 μM
Description: (§1) Polyamine Levels in L1210 Cells Treated with --25.

L1210 Cells [3] = assay: Cell number of L1210 cells treated with 25; assay type: cell-based; details: 96 hrs; +100 μM
Description: as §1

HCMV = assay: In vitro antiviral activity against cytomegalovirus: HCMV yields in MRC5 cell monolayer cultures; assay type: cell-based
Description: The Effects of --25 on HCMV Yields in MRC5
*Treatment with --25 began 72 hours prior to virus adsorption. Culture
fluids were replaced with fresh drug and medium 24 hours before virus
infection, immediately following virus infection, and 3 days p.i.

CN(CCCNN)C[C@H]1O[C@@H](n2cnc3c(N)ncnc32)[C@H](O)[C@@H]1O [Compound 25, 5'-Deoxy-5'-[N-methyl-N-(3-hydrazinopropyl)]aminoadenosine sesquisulfate 1.8H2 O.0.1EtOH]
IC50 [1]: 0.008 µM
Polyamine Content, Putrescine (L1210 Cells [2]; 24 hrs): 3.16 umol/10^6 Cells
Polyamine Content, Spermidine (L1210 Cells [2]; 24 hrs): 0.58 umol/10^6 Cells
Polyamine Content, Spermine (L1210 Cells [2]; 24 hrs): 0.20 umol/10^6 Cells
Polyamine Content, Putrescine (L1210 Cells [2]; 48 hrs): 4.91 umol/10^6 Cells
Polyamine Content, Spermidine (L1210 Cells [2]; 48 hrs): 0.78 umol/10^6 Cells
Polyamine Content, Spermine (L1210 Cells [2]; 48 hrs): 0.16 umol/10^6 Cells
Polyamine Content, Putrescine (L1210 Cells [2]; 96 hrs): 5.69 umol/10^6 Cells
Polyamine Content, Spermidine (L1210 Cells [2]; 96 hrs): 0.65 umol/10^6 Cells
Polyamine Content, Spermine (L1210 Cells [2]; 96 hrs): 0.19 umol/10^6 Cells
effect on spermidine, spermine and putrescine levels (L1210 Cells [2]; in words, Table 4): decrease in spermidine and spermine levels; also recorded: increase in putrescine levels
Cell Number × 10^-5 per mL (L1210 Cells [3]): 17 × 10^-5 per mL
CMV Yield (PFU/ml) (HCMV; 3.2 μM): 5.8 PFU/ml
CMV Yield (log10 PFU/ml) (HCMV; 3.2 μM): 5.8 × 10^5 log10 PFU/ml
CMV Yield (PFU/ml) (HCMV; 10 μM): 5.8 PFU/ml
CMV Yield (log10 PFU/ml) (HCMV; 10 μM): 6.3 × 10^5 log10 PFU/ml
CMV Yield (PFU/ml) (HCMV; 32 μM): 5.8 PFU/ml
CMV Yield (log10 PFU/ml) (HCMV; 32 μM): 5.8 × 10^5 log10 PFU/ml
CMV Yield (PFU/ml) (HCMV; 100 μM): 5.6 PFU/ml
CMV Yield (log10 PFU/ml) (HCMV; 100 μM): 4.2 × 10^5 log10 PFU/ml
CMV Yield (PFU/ml) (HCMV; 320 μM): 5.1 PFU/ml
CMV Yield (log10 PFU/ml) (HCMV; 320 μM): 1.2 × 10^5 log10 PFU/ml
CMV Yield (PFU/ml) (HCMV; 1000 μM): 2.2 PFU/ml
CMV Yield (log10 PFU/ml) (HCMV; 1000 μM): 1.4 × 10^2 log10 PFU/ml
inhibition at 10 µM (HCMV; Human betaherpesvirus 5, MRC5, 10 μM, read-out: Reduction (%) of CPE at Time of Virus Harvest): 0%
inhibition at 100 µM (HCMV; Human betaherpesvirus 5, MRC5, 100 μM, read-out: Reduction (%) of CPE at Time of Virus Harvest): 0%
inhibition at 320 µM (HCMV; Human betaherpesvirus 5, MRC5, 320 μM, read-out: Reduction (%) of CPE at Time of Virus Harvest): 0%

CN(CCNC(=O)NN)C[C@H]1O[C@@H](n2cnc3c(N)ncnc32)[C@H](O)[C@@H]1O [Compound 16, 5'-Deoxy-5'-[N-methyl-N-[2-(hydrazinecarboxamido)ethyl]aminoadenosine, sesquisulfate dihydrate]
IC50 [1]: 0.6 µM

CN(CCCNC(=S)NN)C[C@H]1O[C@@H](n2cnc3c(N)ncnc32)[C@@H]2OC(C)(C)O[C@@H]21 [Compound 22, 2',3'-O-Methylethylidene-5'-deoxy-5'-[N-methyl-N-[3-(hydrazinethiocarboxamido)propyl]]aminoadenosine]
IC50 [1]: 1.8 µM
